How the values were obtained:
Test in all cases: In vitro antibacterial activity, agar dilution MIC
Type in all cases: cell-based
Candida albicans CCH 442 = test system: Candida albicans CCH 442; set-up: unit not given here; conditions: code TT, BHI agar, 35-37° C., 20 to 24 hours
Experimental: (§1) Representative compounds of the present invention were assayed in vitro for antibacterial activity as follows: Twelve petri dishes containing successive aqueous dilutions of the test compound mixed with 10 mL of sterilized Brain Heart Infusion (BHI) agar (Difco 0418-01-5) were prepared. Each plate was inoculated with 1:100 (or 1:10 for slow-growing strains, such as Micrococcus and Streptococcus) dilutions of up to 32 different microorganisms, using a Steers replicator block. The inoculated plates were incubated at 35-37° C. for 20 to 24 hours. In addition, a control plate, using BHI agar containing no test compound, was prepared and incubated at the beginning and end of each test.
(§2) An additional plate containing a compound having known susceptibility patterns for the organisms being tested and belonging to the same antibiotic class as the test compound was also prepared and incubated as a further control, as well as to provide test-to-test comparability.
(§3) After incubation, each plate was visually inspected. The minimum inhibitory concentration (MIC) was defined as the lowest concentration of drug yielding no growth, a slight haze, or sparsely isolated colonies on the inoculum spot as compared to the growth control.

[1] = test system: Enterococcus faecium ATCC X043; set-up: unit not given here; conditions: code II, BHI agar, 35-37° C., 20 to 24 hours
Experimental: as §1, §2, §3

Escherichia coli DC-2 = test system: Escherichia coli DC-2; set-up: unit not given here; conditions: code SS, BHI agar, 35-37° C., 20 to 24 hours
Experimental: as §1, §2, §3

Escherichia coli JUHL = test system: Escherichia coli JUHL; set-up: unit not given here; conditions: code QQ, BHI agar, 35-37° C., 20 to 24 hours
Experimental: as §1, §2, §3

Escherichia coli SS = test system: Escherichia coli SS; set-up: unit not given here; conditions: code RR, BHI agar, 35-37° C., 20 to 24 hours
Experimental: as §1, §2, §3

[2] = test system: Micrococcus luteus ATCC 9341; set-up: unit not given here; conditions: code OO, BHI agar, 35-37° C., 20 to 24 hours
Experimental: as §1, §2, §3

[3] = test system: Mycobacterium smegmatis ATCC 114; set-up: unit not given here; conditions: code UU, BHI agar, 35-37° C., 20 to 24 hours
Experimental: as §1, §2, §3

[4] = test system: Nocardia Asteroides ATCC 99700; set-up: unit not given here; conditions: code VV, BHI agar, 35-37° C., 20 to 24 hours
Experimental: as §1, §2, §3

[5] = test system: Staphylococcus aureus 1775; set-up: unit not given here; conditions: code GG, BHI agar, 35-37° C., 20 to 24 hours
Experimental: as §1, §2, §3

[6] = test system: Staphylococcus aureus A-5177; set-up: unit not given here; conditions: code BB, BHI agar, 35-37° C., 20 to 24 hours
Experimental: as §1, §2, §3

[7] = test system: Staphylococcus aureus A-5278; set-up: unit not given here; conditions: code CC, BHI agar, 35-37° C., 20 to 24 hours
Experimental: as §1, §2, §3

[8] = test system: Staphylococcus aureus ATCC 6538P; set-up: unit not given here; conditions: code AA, BHI agar, 35-37° C., 20 to 24 hours
Experimental: as §1, §2, §3

[9] = test system: Staphylococcus aureus CMX 553; set-up: unit not given here; conditions: code FF, BHI agar, 35-37° C., 20 to 24 hours
Experimental: as §1, §2, §3

[10] = test system: Staphylococcus aureus CMX 642A; set-up: unit not given here; conditions: code DD, BHI agar, 35-37° C., 20 to 24 hours
Experimental: as §1, §2, §3

[11] = test system: Staphylococcus aureus NCTC 10649M; set-up: unit not given here; conditions: code EE, BHI agar, 35-37° C., 20 to 24 hours
Experimental: as §1, §2, §3

[12] = test system: Staphylococcus epidermidis 3519; set-up: unit not given here; conditions: code HH, BHI agar, 35-37° C., 20 to 24 hours
Experimental: as §1, §2, §3

[13] = test system: Streptococcus agalactiae CMX 508; set-up: unit not given here; conditions: code KK, BHI agar, 35-37° C., 20 to 24 hours
Experimental: as §1, §2, §3

[14] = test system: Streptococcus bovis A-5169; set-up: unit not given here; conditions: code JJ, BHI agar, 35-37° C., 20 to 24 hours
Experimental: as §1, §2, §3

[15] = test system: Streptococcus pyogenes 930; set-up: unit not given here; conditions: code MM, BHI agar, 35-37° C., 20 to 24 hours
Experimental: as §1, §2, §3

[16] = test system: Streptococcus pyogenes PIU 2548; set-up: unit not given here; conditions: code NN, BHI agar, 35-37° C., 20 to 24 hours
Experimental: as §1, §2, §3

[17] = test system: Haemophilis Influenzae DILL AMP R; conditions: code WW, 35-37° C., 20 to 24 hours
Experimental: as §1, §2, §3

[18] = test system: Micrococcus luteus ATCC 4698; conditions: code PP, BHI agar, 35-37° C., 20 to 24 hours
Experimental: as §1, §2, §3

[19] = test system: Streptococcus Pneumonia 5649; conditions: code ZZA (code list: ZA), 35-37° C., 20 to 24 hours
Experimental: as §1, §2, §3

[20] = test system: Streptococcus Pneumonia 5979; conditions: code ZZ, 35-37° C., 20 to 24 hours
Experimental: as §1, §2, §3

[21] = test system: Streptococcus Pneumonia ATCC 6303; conditions: code XX, 35-37° C., 20 to 24 hours
Experimental: as §1, §2, §3

[22] = test system: Streptococcus Pneumonia GYR 1171; conditions: code YY, 35-37° C., 20 to 24 hours
Experimental: as §1, §2, §3

[23] = test system: Streptococcus pyogenes EES61; conditions: code LL, BHI agar, 35-37° C., 20 to 24 hours
Experimental: as §1, §2, §3

SMILES | Antibacterial Activity (MIC) (Candida albicans CCH 442) | Antibacterial Activity (MIC) [1] | Antibacterial Activity (MIC) (Escherichia coli DC-2) | Antibacterial Activity (MIC) (Escherichia coli JUHL) | Antibacterial Activity (MIC) (Escherichia coli SS) | Antibacterial Activity (MIC) [2] | Antibacterial Activity (MIC) [3] | Antibacterial Activity (MIC) [4] | Antibacterial Activity (MIC) [5] | Antibacterial Activity (MIC) [6] | Antibacterial Activity (MIC) [7] | Antibacterial Activity (MIC) [8] | Antibacterial Activity (MIC) [9] | Antibacterial Activity (MIC) [10] | Antibacterial Activity (MIC) [11] | Antibacterial Activity (MIC) [12] | Antibacterial Activity (MIC) [13] | Antibacterial Activity (MIC) [14] | Antibacterial Activity (MIC) [15] | Antibacterial Activity (MIC) [16] | also measured
CCC1OC(=O)C(C)(O)C(=O)C(C)C(OC2OC(C)CC(N(C)C)C2O)C(C)(OCC(O)CO)CC(C)C(=O)C(C)C2NC(=O)OC12C (stereo not drawn) [Example 3, Compound of formula (II): R^a is —CH2CH(OH)CH2OH, R^b is H, Y and Z together are O, T is —NH—, R is —OH] | >100 | 100 | >100 | >100 | 100 | 50 | >100 | >100 | >100 | >100 | >100 | >100 | >100 | >100 | >100 | >100 | 50 | 50 | >100 | >100 | Antibacterial Activity (MIC) [17]: >128; Antibacterial Activity (MIC) [18]: >100; Antibacterial Activity (MIC) [19]: >128; Antibacterial Activity (MIC) [20]: >128; Antibacterial Activity (MIC) [21]: 64; Antibacterial Activity (MIC) [22]: 32; Antibacterial Activity (MIC) [23]: 100
CCC1OC(=O)C(C)(O)C(=O)C(C)C(OC2OC(C)CC(N(C)C)C2O)C(C)(OCC=Cc2cnc3ccccc3c2)CC(C)C(=O)C(C)C2NC(=O)OC12C (stereo not drawn) [Example 8, Compound of formula (II): R^a is —CH2CH═CH—(3-quinolinyl), R^b is H, Y and Z together are O, T is —NH—, R is —OH,] | >100 | 0.2 | >100 | >100 | 0.2 | 0.02 | 3.1 | 0.39 | >100 | 0.39 | >100 | 0.39 | 0.78 | 0.39 | 0.78 | 0.39 | 0.01 | 0.02 | 50 | 0.39 | Antibacterial Activity (MIC) [17]: 16; Antibacterial Activity (MIC) [18]: 0.2; Antibacterial Activity (MIC) [19]: 0.5; Antibacterial Activity (MIC) [20]: 128; Antibacterial Activity (MIC) [21]: 0.03; Antibacterial Activity (MIC) [22]: 0.03; Antibacterial Activity (MIC) [23]: 0.02

Source: patent publication US20020193320A1, “C-2 modified erythromycin derivatives” (priority 1999, published 2002)
